These results are taken from PubChem BioAssay (NCI).

Molecules are shown by their SMILES. “And” between values parts separate entries of the source, which are not always exact repeats. Identical values can stand only once.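 1) Cells in 96-well plates. 2) Compound, 48 h, 5 concentrations. 3) Linear interpolation between surrounding doses. 4) Unreached endpoint = highest concentration. Here, GI50 denotes the concentration required for 50% inhibition of growth. At the TGI there is no net growth.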

Among the test systems are UO-31 renal; NCI-H23 lung; SF-539 CNS; SR leukemia; HT29 colon; NCI-H226 lung; MCF7 breast; IGROV1 ovarian; NCI/ADR-RES ovarian; RPMI-8226 leukemia.
What all share (assay): NCI-60 cell line screen, 48 h

With `CS(=O)(=O)c1cc(=O)c2ccccc2s1`, the TGI was 29.4 µM in the experiment with UO-31 renal; 24.7 µM with NCI-H23 lung; 27.6 µM in the experiment on SF-539 CNS; 8.09 µM in the experiment with SR leukemia; 16.2 µM with HT29 colon; 20.3 µM in the experiment on NCI-H226 lung. The TGI with MCF7 breast is 8.18 µM; in the experiment on IGROV1 ovarian it was 41.2 µM; with NCI/ADR-RES ovarian, 38.8 µM.
As for `C=C1CC[C@@H]2[C@](C)(COC(C)=O)[C@H](OC(C)=O)CC[C@@]2(C)[C@@H]1CC(Nc1ccc(S(=O)(=O)Nc2ncccn2)cc1)C1=CCOC1=O` (stereo partly drawn), the GI50 with UO-31 renal was 1.51 µM; in the experiment with NCI-H23 lung, 2.11 µM; in the experiment with SF-539 CNS, 1.5 µM; in the experiment with SR leukemia, 0.313 µM; in the experiment on RPMI-8226 leukemia it was 0.541 µM; in the experiment on MCF7 breast, 1.07 µM. The GI50 in the experiment on IGROV1 ovarian is 2.04 µM; in the experiment with NCI/ADR-RES ovarian, 1.83 µM. The TGI turned out to be 2.97 µM with UO-31 renal; 5.38 µM in the experiment with NCI-H23 lung; 2.94 µM in the experiment on SF-539 CNS; 17.2 µM with SR leukemia; 3.12 µM with RPMI-8226 leukemia; 4.54 µM in the experiment with MCF7 breast. For the same molecule, the TGI with IGROV1 ovarian is 4.41 µM; in the experiment on NCI/ADR-RES ovarian, 5.28 µM.
In the case of `CC(C)CCCC(=O)CCCCCCC(=O)CCN(O)C(=O)C(N)CO` (stereo not drawn), the TGI in the experiment on UO-31 renal was 26.7 µM; with NCI-H23 lung, 32.1 µM; in the experiment on SF-539 CNS, 37.4 µM; in the experiment with HT29 colon it was 43.5 µM; in the experiment with NCI-H226 lung, 35.6 µM; in the experiment with RPMI-8226 leukemia it was 57.5 µM. In addition, the TGI with MCF7 breast turned out to be 44.7 µM; in the experiment with IGROV1 ovarian it was 31.9 µM; in the experiment with NCI/ADR-RES ovarian, 38.4 µM.
On to `C=C[C@H]1C[C@@H]2C[C@@H]3[C@H]4C/C=C\C(=O)NCCCC5NC(=O)C(=C(O)/C=C/[C@@H]4CC(=O)[C@H]3[C@@H]2[C@H]1C)C5=O` (stereo partly drawn), for which the GI50 in the experiment with UO-31 renal was 0.15 µM; in the experiment with NCI-H23 lung, 0.627 µM; in the experiment with SF-539 CNS, 0.248 µM; in the experiment with HT29 colon, 1.88 µM; in the experiment with NCI-H226 lung, 0.166 µM; in the experiment with RPMI-8226 leukemia, 1.5 µM. Moreover, the GI50 with MCF7 breast is 1.24 µM; with IGROV1 ovarian, 0.212 µM; in the experiment on NCI/ADR-RES ovarian, 0.192 µM. Besides, the TGI with UO-31 renal worked out at 0.299 µM; in the experiment with NCI-H23 lung it was 1.47 µM; in the experiment on SF-539 CNS it was 0.666 µM; with HT29 colon, 3.58 µM; with NCI-H226 lung, 0.379 µM; in the experiment with RPMI-8226 leukemia, 3.68 µM. For the same molecule, the TGI in the experiment on MCF7 breast was found to be 2.8 µM; in the experiment on IGROV1 ovarian it was 0.434 µM; in the experiment on NCI/ADR-RES ovarian it was 0.365 µM.
Take `NCCCn1c2c(c3ccc([N+](=O)[O-])cc3c1=O)C(=O)c1cc(Br)ccc1-2`: the GI50 is 0.0575 µM in the experiment on UO-31 renal; 0.0289 µM and 0.0213 µM with NCI-H23 lung; 0.0132 µM and 0.0109 µM in the experiment on SF-539 CNS; 0.00556 µM with HT29 colon; 0.0451 µM and 0.011 µM in the experiment with NCI-H226 lung; 0.0754 µM in the experiment on IGROV1 ovarian. Moreover, the GI50 in the experiment on NCI/ADR-RES ovarian is 0.0352 µM. In addition, the TGI in the experiment on UO-31 renal is 0.184 µM; in the experiment with NCI-H23 lung, 0.118 µM and 0.151 µM; in the experiment with SF-539 CNS, 0.0699 µM and 0.0472 µM; with HT29 colon it was 0.134 µM; with NCI-H226 lung, 0.326 µM and 0.0684 µM; in the experiment on MCF7 breast, 0.0696 µM. For the same molecule, the TGI is 0.225 µM and 0.0325 µM in the experiment with IGROV1 ovarian; 0.203 µM and 0.206 µM with NCI/ADR-RES ovarian.
Turning to `CC(C)(C)c1ccc(O)c(CN(Cc2cc(C(C)(C)C)ccc2O)c2ccccc2)c1`, the TGI in the experiment with UO-31 renal came to 29.2 µM; with NCI-H23 lung, 40.8 µM; with SF-539 CNS, 32 µM; in the experiment with SR leukemia, 38.1 µM; with HT29 colon it was 35.3 µM; with RPMI-8226 leukemia, 47.7 µM. Besides, the TGI in the experiment with MCF7 breast was 38.9 µM; with IGROV1 ovarian, 47.7 µM; in the experiment with NCI/ADR-RES ovarian, 37.6 µM.
On to `Cc1ccc(NC(=O)NCCCOc2ccc(N3C(N)=NC(N)=NC3(C)C)cc2Cl)cc1S(=O)(=O)F`, for which the GI50 was over 100 µM in the experiment on UO-31 renal; 5 µM in the experiment with NCI-H23 lung; 8.84 µM in the experiment with SF-539 CNS; 0.724 µM with SR leukemia; 58.1 µM in the experiment with NCI-H226 lung; 60.7 µM with RPMI-8226 leukemia. Besides, the figures for the GI50 with MCF7 breast, in the experiment with IGROV1 ovarian and in the experiment with NCI/ADR-RES ovarian were 4.93 µM, 0.525 µM and over 100 µM, respectively. The TGI is over 100 µM in the experiment with UO-31 renal; over 100 µM with NCI-H23 lung; 81.2 µM with SF-539 CNS; over 100 µM with SR leukemia; over 100 µM in the experiment with NCI-H226 lung; over 100 µM with RPMI-8226 leukemia. For the same molecule, the TGI in the experiment on MCF7 breast, in the experiment with IGROV1 ovarian and with NCI/ADR-RES ovarian was over 100 µM each time.
Turning to `CC[CH2][Sn]([Cl])([Cl])[CH2]CC.Oc1ccccc1C=NCCN=Cc1ccccc1O`, the GI50 in the experiment with UO-31 renal is 5.45 µM; in the experiment with NCI-H23 lung it was 6.62 µM; in the experiment on SF-539 CNS it was 10.5 µM; in the experiment with SR leukemia it was 5.45 µM; with NCI-H226 lung, 3.13 µM; in the experiment with RPMI-8226 leukemia, 3.35 µM. The GI50 in the experiment with MCF7 breast was 3.12 µM; in the experiment with IGROV1 ovarian it was 5.98 µM; with NCI/ADR-RES ovarian, 16 µM. Further, the TGI with UO-31 renal is 21.5 µM; in the experiment with NCI-H23 lung it was 20.5 µM; with SF-539 CNS, 24.2 µM; in the experiment on SR leukemia, over 100 µM; with NCI-H226 lung it was 12.6 µM; in the experiment on RPMI-8226 leukemia it was 8.33 µM. The figures for the TGI in the experiment on MCF7 breast, in the experiment with IGROV1 ovarian and with NCI/ADR-RES ovarian were 15.8 µM, 27 µM and 37.8 µM, respectively.
As for `Cc1nc(-c2ccccc2)c(-c2ccccc2)s1`, the TGI was 54.1 µM in the experiment on UO-31 renal; 97.7 µM in the experiment on NCI-H23 lung; 71.4 µM with SF-539 CNS; 41.7 µM in the experiment on HT29 colon; 42.7 µM in the experiment with NCI-H226 lung; 37.5 µM with RPMI-8226 leukemia. The TGI in the experiment with MCF7 breast is 62.3 µM; in the experiment with IGROV1 ovarian, 95.3 µM; in the experiment on NCI/ADR-RES ovarian it was 65.4 µM.
As for `CO[C@H]1C=C[C@@]23c4cc5c(cc4CO[C@]2(O)CN(C)[C@H]3C1)OCO5`, the TGI in the experiment on UO-31 renal, in the experiment with NCI-H23 lung, in the experiment with SF-539 CNS, in the experiment on HT29 colon, in the experiment with NCI-H226 lung and in the experiment on RPMI-8226 leukemia was over 100 µM each time. The TGI with MCF7 breast, with IGROV1 ovarian and in the experiment with NCI/ADR-RES ovarian was over 100 µM in each case.
Consider `Cc1ccc(-c2cc(=O)c3cc(C)c(C)c(C(=O)O)c3o2)cc1C`, for which the TGI in the experiment with UO-31 renal, in the experiment with NCI-H23 lung, in the experiment with SF-539 CNS, in the experiment with SR leukemia, in the experiment on HT29 colon and in the experiment with NCI-H226 lung was over 100 µM in each case. For the same molecule, the TGI in the experiment with RPMI-8226 leukemia and in the experiment on IGROV1 ovarian was over 100 µM in each case.
